14 molecules from patent publication US20220041606A1, “POSITIVE ALLOSTERIC MODULATORS OF THE MUSCARINIC ACETYLCHOLINE RECEPTOR M1” (Vanderbilt University, priority 2020, published 2022) can be followed below.

Experiment [1] addresses T1, human mAChR M1 (Homo sapiens, UniProt P11229).
T1 construct: host or cells: CHO-K1 cells (ATCC), stably transfected using Lipofectamine2000
T1 sequence (P11229 1-460): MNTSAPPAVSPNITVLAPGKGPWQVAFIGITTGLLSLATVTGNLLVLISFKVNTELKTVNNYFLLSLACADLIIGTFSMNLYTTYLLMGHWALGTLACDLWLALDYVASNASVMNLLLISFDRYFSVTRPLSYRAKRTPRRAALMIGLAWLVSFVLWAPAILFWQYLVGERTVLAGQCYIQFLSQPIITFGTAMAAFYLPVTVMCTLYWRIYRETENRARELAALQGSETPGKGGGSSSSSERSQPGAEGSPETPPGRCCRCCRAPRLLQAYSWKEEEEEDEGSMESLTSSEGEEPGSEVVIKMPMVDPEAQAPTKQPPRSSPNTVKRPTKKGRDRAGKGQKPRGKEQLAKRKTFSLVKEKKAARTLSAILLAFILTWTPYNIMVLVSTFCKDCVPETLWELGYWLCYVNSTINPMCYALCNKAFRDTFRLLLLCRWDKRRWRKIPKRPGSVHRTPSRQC
Description: mAChR M1 cell-based functional assay (calcium mobilization), agonist activity upon compound addition. The conditions noted are these: CHO-K1 cells expressing hM1; for EC50: compound alone, before acetylcholine addition; for Emax: relative to the maximum for acetylcholine. From the text:
(§1) Chinese hamster ovary (CHO-K1) cells stably expressing rat (r)M1 were purchased from the American Type Culture Collection and cultured according to their indicated protocol. CHO cells stably expressing human (h)M2, hM3, and hM5 were described previously (Levey, et al., 1991); hM1 and hM4 cDNAs were purchased from Missouri S&T cDNA Resource; rM4 cDNA was provided by T. L. Bonner (National Institutes of Health, Bethesda, MID). rM2 and rM3 were cloned from a rat brain cDNA library and sequence verified. hM1, rM2, rM3, hM4, and rM4 cDNAs were used to stably transfect CHO-K1 cells purchased from the American Type Culture Collection using Lipofectamine2000. To make stable rM2, hM2, rM3, hM4, and rM4 cell lines for use in calcium mobilization assays, these cells also were stably transfected with a chimeric G-protein (Gqi5) (provided by B. R. Conklin, University of California, San Francisco) using Lipofectamine 2000. rM1, hM1, rM3, hM3, rM5, and hM5 cells were grown in Ham's F-12 medium containing 10% heat-inactivated fetal bovine serum (FBS), 20 mM HEPES, and 50 μg/mL G418 sulfate. rM2-Gq15, hM2-Gqi5, and hM4-Gqi5 cells were grown in the same medium also containing 500 μg/mL Hygromycin B. Stable rM4-Gqi5 cells were grown in DMEM containing 10% heat-inactivated FBS, 20 mM HEPES, 400 μg/mL G418 sulfate, and 500 μg/mL Hygromycin B.
(§2) For high throughput measurement of agonist-evoked increases in intracellular calcium, CHO-K1 cells stably expressing muscarinic receptors were plated in growth medium lacking G418 and hygromycin at 15,000 cells/20 μL/well in Greiner 384-well black-walled, tissue culture (TC)-treated, clear-bottom plates (VWR). Cells were incubated overnight at 37° C. and 5% CO2. The next day, cells were washed using an ELX 405 (BioTek) with four washes (80 μL) of assay buffer then aspirated to 20 μL. Next, 20 μL of 16 μM Fluo-4/acetoxymethyl ester (Invitrogen, Carlsbad, Calif.) prepared as a 2.3 mM stock in DMSO and mixed in a 1:1 ratio with 10% (w/v) Pluronic F-127 and diluted in assay buffer was added to the wells and the cell plates were incubated for 50 min at 37° C. and 5% CO2. Dye was removed by washing with the ELX 405 (four 80 μL washes of assay buffer) then aspirated to 20 μL. Compound master plates were formatted in an 11 point CRC format (1:3 dilutions) in 100% DMSO with a starting concentration of 10 mM using the BRAVO liquid handler (Agilent). Test compound CRCs were then transferred to daughter plates (240 nL) using the Echo acoustic plate reformatter (Labcyte, Sunnyvale, Calif.) and then diluted into assay buffer (40 μL) to a 2× stock using a Thermo Fisher Combi (Thermo Fisher Scientific, Waltham, Mass.).
(§3) Calcium flux was measured using the Functional Drug Screening System (FDSS) 6000 (Hamamatsu Corporation, Tokyo, Japan) as an increase in the fluorescent static ratio. Compounds were applied to cells (20 μL, 2×) using the automated system of the FDSS 6000 at 4 s into the 300 s protocol and the data were collected at 1 Hz. At 144 s into the 300s protocol, 10 μL of an EC20 concentration of the muscarinic receptor agonist acetylcholine was added (5×), followed by the addition of 12 μL an EC80 concentration of acetylcholine at the 230 s time point (5×). Agonist activity was analyzed as a concentration-dependent increase in calcium mobilization upon compound addition. Emax values for agonist activity are expressed relative to the maximum for acetylcholine. Positive allosteric modulator activity was analyzed as a concentration-dependent increase in the EC20 acetylcholine response. Antagonist activity was analyzed as a concentration-dependent decrease in the EC80 acetylcholine response. Concentration-response curves were generated using a four-parameter logistical equation in XLfit curve fitting software (IDBS, Bridgewater, N.J.) for Excel (Microsoft, Redmond, Wash.) or Prism (GraphPad Software, Inc., San Diego, Calif.). […]
(Calcium flux is commonly read through the fluorescence of an indicator in the cells.)

The target of experiment [2] is T1, human mAChR M1. Description: mAChR M1 cell-based functional assay (calcium mobilization), PAM activity: increase in the EC20 acetylcholine response. The conditions noted are these: CHO-K1 cells expressing hM1; potentiation of EC20 acetylcholine response.
Source text: as §1, §2, §3

Usually EC50 stands for the midpoint of the concentration-response curve. One may read the Emax as the greatest response seen or fitted, relative to the assay's reference. Take `Cn1ccc(-c2ccc(Cn3cc(C(=O)N[C@@H]4CC[C@H]4O)c4nccn4c3=O)c(F)c2)n1` [Compound B4, 6-(2-fluoro-4-(1-methyl-1H-pyrazol-3-yl)benzyl)-N-((1R,2R)-2-hydroxycyclobutyl)-5-oxo-5,6-dihydroimidazo[1,2-c]pyrimidine-8-carboxamide]: on human mAChR M1 [1], the EC50 is > 10 µM and the Emax is < 5%. At human mAChR M1 [2], the EC50 was found to be 3.22 µM and the Emax stood at 52%.
As to `Cn1cc(-c2ccc(Cn3cc(C(=O)N[C@@H]4CC[C@H]4O)c4nccn4c3=O)c(F)c2)cn1` [Compound B8, 6-(2-fluoro-4-(1-methyl-1H-pyrazol-4-yl)benzyl)-N-((1R,2R)-2-hydroxycyclobutyl)-5-oxo-5,6-dihydroimidazo[1,2-c]pyrimidine-8-carboxamide], at human mAChR M1 [1], the Emax was found to be 29%. Also, on human mAChR M1 [2], the half-maximal effective concentration (EC50) came to 2 µM and the Emax worked out at 72%.
For the molecule `Cn1cc2c(-c3cc(F)c(Cn4cc(C(=O)N[C@H]5CCCC[C@@H]5O)c5sccc5c4=O)c(F)c3)cccc2n1` [Compound D31, 5-(2,6-difluoro-4-(2-methyl-2H-indazol-4-yl)benzyl)-N-((1S,2S)-2-hydroxycyclohexyl)-4-oxo-4,5-dihydrothieno[3,2-c]pyridine-7-carboxamide], the concentration for a half-maximal effect (EC50) on human mAChR M1 [1] is > 10 µM; on human mAChR M1 [2], 7.98 µM. The Emax on human mAChR M1 [1] was < 5%; at human mAChR M1 [2] it was 54%.
Regarding `O=C(N[C@H]1CCCCC[C@@H]1O)c1cn(Cc2ccc(-n3cccn3)cc2)c(=O)c2cccnc12` [Compound A25, 6-(4-(1H-pyrazol-1-yl)benzyl)-N-((1S,2S)-2-hydroxycycloheptyl)-5-oxo-5,6-dihydro-1,6-naphthyridine-8-carboxamide], the values for the EC50 on human mAChR M1 [1] and at human mAChR M1 [2] were > 10 µM and 0.97 µM, respectively. In addition, the Emax was < 5% at human mAChR M1 [1] and 68% on human mAChR M1 [2].
On the same counts, the results for `Cn1cnc2c(C(=O)N[C@H]3CCCC[C@@H]3O)cn(Cc3ccc(-n4cccn4)cc3)c(=O)c21` [Compound C6, 5-(4-(1H-pyrazol-1-yl)benzyl)-N-((1S,2S)-2-hydroxycyclohexyl)-3-methyl-4-oxo-4,5-dihydro-3H-imidazo[4,5-c]pyridine-7-carboxamide] are > 10 µM, 0.17 µM, < 5% and 43%.
On the same counts, the results for `O=C(N[C@H]1CCOC[C@@H]1O)c1cn(Cc2c(F)cc(-c3ccns3)cc2F)c(=O)c2cccnc12` [Compound A50, 6-(2,6-difluoro-4-(isothiazol-5-yl)benzyl)-N-((3R,4S)-3-hydroxytetrahydro-2H-pyran-4-yl)-5-oxo-5,6-dihydro-1,6-naphthyridine-8-carboxamide] are > 10 µM, 1.79 µM, < 5% and 69%.
For `O=C(N[C@H]1CCCCC[C@@H]1O)c1cn(Cc2ccc(-n3cccn3)cc2)c(=O)c2ccoc12` [Compound D5, 5-(4-(1H-pyrazol-1-yl)benzyl)-N-((1S,2S)-2-hydroxycycloheptyl)-4-oxo-4,5-dihydrofuro[3,2-c]pyridine-7-carboxamide], in that order: > 10 µM, > 10 µM, < 5% and 58%.
`Cc1cn2c(=O)n(Cc3ccc(-c4ccn(C)n4)cc3F)cc(C(=O)N[C@H]3CCOC[C@@H]3O)c2n1` [Compound B25, 6-(2-fluoro-4-(1-methyl-1H-pyrazol-3-yl)benzyl)-N-((3R,4S)-3-hydroxytetrahydro-2H-pyran-4-yl)-2-methyl-5-oxo-5,6-dihydroimidazo[1,2-c]pyrimidine-8-carboxamide]: on human mAChR M1 [1], the EC50 was > 10 µM and the Emax is < 5%. At human mAChR M1 [2], the EC50 worked out at 9.29 µM and the Emax is 33%.
For the molecule `O=C(N[C@H]1CCCCC[C@@H]1O)c1cn(Cc2ccc(-c3cscn3)cc2)c(=O)c2cccnc12` [Compound A60, N-((1S,2S)-2-hydroxycycloheptyl)-5-oxo-6-(4-(thiazol-4-yl)benzyl)-5,6-dihydro-1,6-naphthyridine-8-carboxamide], the values for the EC50 on human mAChR M1 [1] and on human mAChR M1 [2] were > 10 µM and 0.61 µM, respectively. Besides, the Emax on human mAChR M1 [1] is < 5%; at human mAChR M1 [2], 34%.
For `Cc1cc(-c2ccc(Cn3cc(C(=O)N[C@H]4CCC[C@@H]4O)c4ncccc4c3=O)c(F)c2)ccn1` [Compound A28, 6-(2-fluoro-4-(2-methylpyridin-4-yl)benzyl)-N-((1S,2S)-2-hydroxycyclopentyl)-5-oxo-5,6-dihydro-1,6-naphthyridine-8-carboxamide], at human mAChR M1 [1], the EC50 was > 10 µM and the Emax was < 5%. Besides, on human mAChR M1 [2], the EC50 was determined as 1.14 µM and the Emax was 54%.
For `O=C(N[C@H]1CCC[C@@H]1O)c1cn(Cc2ccc(-n3cccn3)cc2)c(=O)c2cccnc12` [Compound A14, 6-(4-(1H-pyrazol-1-yl)benzyl)-N-((1S,2S)-2-hydroxycyclopentyl)-5-oxo-5,6-dihydro-1,6-naphthyridine-8-carboxamide], at human mAChR M1 [1], the EC50 is > 10 µM and the Emax is < 5%. In addition, on human mAChR M1 [2], the EC50 came to 7.78 µM and the Emax worked out at 64%.
For `Cn1ccc(-c2ccc(Cn3cc(C(=O)N[C@H]4CCC[C@@H]4O)c4ncn(C)c4c3=O)c(F)c2)n1` [Compound C2, 5-(2-fluoro-4-(1-methyl-1H-pyrazol-3-yl)benzyl)-N-((1S,2S)-2-hydroxycyclopentyl)-3-methyl-4-oxo-4,5-dihydro-3H-imidazo[4,5-c]pyridine-7-carboxamide], in that order: > 10 µM, < 5%, 0.6 µM and 45%.
For `Cn1nccc1-c1ccc(Cn2cc(C(=O)N[C@H]3CCCC[C@@H]3O)c3ncccc3c2=O)c(F)c1` [Compound A46, 6-(2-fluoro-4-(1-methyl-1H-pyrazol-5-yl)benzyl)-N-((1S,2S)-2-hydroxycyclohexyl)-5-oxo-5,6-dihydro-1,6-naphthyridine-8-carboxamide], in that order: > 10 µM, < 5%, 1.13 µM and 41%.
In the case of `Cn1ccc(-c2ccc(Cn3cc(C(=O)N[C@H]4CCCC[C@@H]4O)c4nccn4c3=O)c(F)c2)n1` [Compound B2, 6-(2-fluoro-4-(1-methyl-1H-pyrazol-3-yl)benzyl)-N-((1S,2S)-2-hydroxycyclohexyl)-5-oxo-5,6-dihydroimidazo[1,2-c]pyrimidine-8-carboxamide], at human mAChR M1 [1], the EC50 came out at 3.7 µM and the Emax turned out to be 60%. On human mAChR M1 [2], the EC50 was 0.096 µM and the Emax is 68%.
